# “Also recorded” adds a separate entry of the source. Where two headings read alike, the source gives them in different places.
# How the values were obtained:
# humans = details: known effects in humans; cited from earlier work
# zebrafish embryos [1] = assay: Automated angiogenesis assay (ISV formation), Flk1:copGFP embryos treated at 22-26 hpf, read at 48 hpf; assay type: in vivo; details: for Angiog. inhibition: presence or absence of an anti-angiogenic effect, 0.01-100 µM; for Efective concentration (minimum concentration that showed an effect): given when IC50 could not be calculated; for Anti-angiogenic phenotype (ISVs / DLAV): treated at 24 hpf, checked at 48 hpf; for IC50: manually quantified
# Text: In the angiogenesis assay, the fluorescent images taken were processed using AxioVision 4.6.3 and a macro was developed to quantify an indirect measure of the area of the ISVs. […] However, we usually include a manual counting to offer a more detailed measurement of effect.
# In the automatic analysis of angiogenesis, it is first necessary to perform a sequence of automated filtering functions on the image to extract information, define the region of interest (ROI), that in this case is the part of the tail containing the ISVs, and allow the measurement of the embryo length. Recovering a previous image, new filtering functions are applied to the ROI. A gradient image containing the ISVs, the DLAV (Dorsal Longitudinal Anastomotic Vessel), the PCV and the DA is created. Next, fluorescent areas that should not be quantified are discarded. Finally, only the areas comprised between the ISVs, the DLAV and the PCV or the DA are measured (Figure 4). In that way, when the vessels are incomplete or the DLAV is not present, an enclosed area is not present and therefore not measured.
# The means obtained from the treated embryos were compared with the control mean. When statistically significant differences were detected a deeper analysis was done manually. In this case the parameters quantified were:
# • The total number of ISVs present in the trunk of the embryos (from where the largest bulge of the yolk ends to the end of the tail). • Number of complete ISVs (reached the dorsal part of the embryo and formed the DLAV).
# A curve of six concentrations (0.01, 0.1, 1, 10, 30 and 100 µM) was performed for all of them. […] IC50 was calculated when a clear dose-dependent anti-angiogenesis effect was detected. Otherwise, the minimum dose at which the inhibition of angiogenesis was observed is shown (Table 4).
# At this time, chorions were removed with protease from Streptomyces griseus (Sigma-Aldrich) (1.5 mg/ml for 6 minutes) and the embryos were sorted and dispensed 1 per well in a 96 well assay plate. Each experimental condition was tested in a row with ten embryos. Embryos were dispensed in an average final volume of 90 µl of E3 media. 90 µl of the test items (DMSO and positive control KRN633 included) previously diluted 100 times were dispensed into each well of the assay plate containing the embryos to get the final volume of 180 µl and the desired final concentration.
# The microscope scanned the wells by columns and a bright field image and a fluorescent image (2.5×magnification) were acquired per well. Then, the image analysis was performed and the result file generated.
# Statistical analysis and graphical representation of the data were performed using SSPS (Statistical Package for the Social Sciences) software and Prism (Graph Pad Software) for IC50 calculations (non linear regression, sigmoidal dose-response with variable slope). […] In the angiogenesis assay, for comparisons between two groups, two-tailed t-test was used assuming unequal variances. For comparisons between more than two groups one-way analysis of variance followed by Dunnett’s post-test was applied to compare each data point with vehicle control.
# zebrafish embryos [2] = assay: Embryo analysis at 72 hpf (blood circulation and ISVs development); assay type: in vivo
# Procedure: Embryos from the Flk1:copGFP line were treated with the indicated compounds at 22–23 hpf in 500 µl of E3 in p24 well plates (5 embryos per well). After 48 hours of treatment embryos were anesthetized with 10 µl Tricaine (final concentration 0.02%) and analyzed for the presence of blood circulation and ISVs development using a Leica M205 FA stereoscope equipped with a Hamamatsu C10600 camera.
# 48 hpf zebrafish embryos = details: for Cardiotoxic effect in zebrafish: blind screened between 1 and 200 µM, predominant effect
# Text: The image analysis program for the Cardiotoxicity assay was based on the processing of the videos to obtain a periodic signal of the cardiac motion automatically and independent to the embryo position.
# The detection of the heart beat frequency was based on the frequency spectrum analysis of the Euclidean Distance (ED) signal (built as the ED between the frames of the video referred to a reference frame calculated with the mean values of intensity for homogeneous zones). Obtaining the periodogram using the Discrete Fourier Transform (DFT), and modifying it to avoid undesired effects, the heart beat frequency was given by its first significant frequency (Figure 3 A).
# For embryos with arrhythmia (A), the sinusoidal course of the ED signal was disrupted due to the irregular beating of the heart, i.e. the different beating frequency of each chamber. The classification of the arrhythmia cases was therefore based on the number of significant frequencies detected in the DFT of the ED signal (Figure 3 B).
# Embryos at 48 hpf were automatically dispensed in a 96 well plate discarding exterior columns and rows and volume was leveled to 50µl with E3. Compounds were prepared 200 times concentrated in DMSO. A 1∶100 dilution was automatically made from the stock and 50 µl were added to each embryo to reach the final concentration. […] Embryos that moved during video recording were discarded. […] One video per embryo from a minimum of 10 embryos in each treated group were necessary for statistical analysis.
# [3] = read-out: IC50 C.V. (complete number of vessels)
# [4] = read-out: IC50 T.V. (total number of vessels)
SMILES,Cardiac effect in humans (humans),Angiog. inhibition (zebrafish embryos [1]),other results
CCN(CC)CC(=O)Nc1c(C)cccc1C [Lidocaine],Bradycardia,–,–
CC(=O)N[C@@H](CS)C(=O)O [N-Acetyl-L-cysteine],–,No,–
CS(=O)(=O)Nc1ccc([N+](=O)[O-])cc1OC1CCCCC1 [NS-398],–,Yes,Efective concentration (minimum concentration that showed an effect) (zebrafish embryos [1]): 30 µM; Anti-angiogenic phenotype (ISVs / DLAV) (zebrafish embryos [1]): moderate effect that did not increase with higher doses; Lethality (zebrafish embryos [2]; treatment to 72 hpf at the 48 hpf doses which inhibited angiogenesis): lethal
Cn1c(=O)n(-c2ccc(C(C)(C)C#N)cc2)c2c3cc(-c4cnc5ccccc5c4)ccc3ncc21 [NVP-BEZ235],–,Yes,Efective concentration (minimum concentration that showed an effect) (zebrafish embryos [1]): 10 µM; Anti-angiogenic phenotype (ISVs / DLAV) (zebrafish embryos [1]): moderate effect that did not increase with higher doses; Blood circulation (zebrafish embryos [2]; 72 hpf): impaired blood circulation; ISVs appearance (zebrafish embryos [2]; 72 hpf): thinner ISVs that were disrupted in some cases
CN1CCC[C@H]1c1cccnc1 [Nicotine],Bradycardia,–,Cardiotoxic effect in zebrafish (48 hpf zebrafish embryos): Bradycardia
CCOC(=O)C1=C(C)NC(C)=C(C(=O)OC)C1c1cccc([N+](=O)[O-])c1 (centres unmarked) [Nitrendipine],Cardiac arrest,–,–
Nc1nc(OCc2ccccc2)c2nc[nH]c2n1 [O6-benzylguanine],–,No,–
COc1cc(OC)cc(-c2cc3cnc(N)nc3nc2NC(=O)NC(C)(C)C)c1 [PD166866],–,Yes,IC50 (zebrafish embryos [1]; [3]): 16 µM; IC50 (zebrafish embryos [1]; [4]): 43.9 µM; Anti-angiogenic phenotype (ISVs / DLAV) (zebrafish embryos [1]): the formation of ISVs was perturbed with defective or total absence of sprouting; also recorded: strong angiogenesis inhibition
COc1cc2nccc(Oc3ccc(NC(=S)NC(=O)c4ccccc4C)cc3)c2cc1OC [PDGFR tyr kin inhibitor V],–,Yes,IC50 (zebrafish embryos [1]; [3]): 0.14 µM; IC50 (zebrafish embryos [1]; [4]): 0.19 µM; Anti-angiogenic phenotype (ISVs / DLAV) (zebrafish embryos [1]; listed as PDGFR tyrosine kinase inhibitor): the formation of ISVs was perturbed with defective or total absence of sprouting; Anti-angiogenic phenotype (ISVs / DLAV) (zebrafish embryos [1]; listed as PDGFR tyrosine kinase inhibitor V): strong angiogenesis inhibition
CC[C@@H]1C(=O)OC[C@@H]1Cc1cncn1C [Pilocarpine],No effect,–,–
O=c1[nH]c2ccccc2n1C1CCN(CCCC(c2ccc(F)cc2)c2ccc(F)cc2)CC1 [Pimozide],QT-prolong.,–,–
Cc1nc2n(c(=O)c1CCN1CCC(c3noc4cc(F)ccc34)CC1)CCCC2 [Risperidone],QT-prolong.,–,–
N#Cc1cc2c(OCC(O)CN3CCN(C(c4ccccc4)c4ccccc4)CC3)cccc2[nH]1 (centres unmarked) [SDZ-201106],QT-prolong.,–,Cardiotoxic effect in zebrafish (48 hpf zebrafish embryos): 2∶1 arrhythmia and type 2∶1 arrhythmias and Arrhythmia 2∶1
O=C1NCCN1CCN1CCC(c2cn(-c3ccc(F)cc3)c3ccc(Cl)cc23)CC1 [Sertindol],QT-prolong.,–,–
CC(C)(C)c1ccc(C(O)CCCN2CCC(C(O)(c3ccccc3)c3ccccc3)CC2)cc1 (centres unmarked) [Terfenadine],–,–,"Concentration at which detected as potential QT-prolongation inducer (48 hpf zebrafish embryos; tested at 0.1, 1, 5, 10, 20 and 50 µM): 5 µM"
CC(CC(c1ccccc1)c1ccccc1)NC(C)(C)C (centres unmarked) [Terodiline],QT-prolong.,–,Cardiotoxic effect in zebrafish (48 hpf zebrafish embryos): Arrhythmia 2∶1
C[C@]12CC[C@H]3[C@@H](CCC4=CC(=O)CC[C@@]43C)[C@@H]1CC[C@@H]2O [Testosterone],Bradycardia,–,Cardiotoxic effect in zebrafish (48 hpf zebrafish embryos): Bradycardia
COc1ccc2cc(-c3nc(-c4ccc([S+](C)[O-])cc4)[nH]c3-c3ccncc3)ccc2c1 (centres unmarked) [Tie2 Kinase inhibitor],–,No,Angiog. inhibition (zebrafish embryos [1]; listed as Tie-2 kinase inhibitor): not detected
CC(C)(C)NC[C@H](O)COc1nsnc1N1CCOCC1 [Timolol],Bradycardia,–,–
N#C/C(=C\c1ccc(O)c(O)c1)C(=O)NCc1ccccc1 [Tyrphostin AG490],–,No,–
"COc1cc2c(Nc3ccc(Br)cc3F)ncnc2cc1OCC1CCN(C)CC1 [ZD6474 (Vandetanib), Vandetanib]",–,Yes,Efective concentration (minimum concentration that showed an effect) (zebrafish embryos [1]): 100 µM; Anti-angiogenic phenotype (ISVs / DLAV) (zebrafish embryos [1]): the formation of ISVs was perturbed with defective or total absence of sprouting
O=C1Cc2cc(CCN3CCN(c4nsc5ccccc45)CC3)c(Cl)cc2N1 [Ziprasidone],QT-prolong.,–,–
N.N.[Cl][Pt][Cl] [cis-Diammineplatinum(II) dichloride],–,No,–
